[3'-NH2-LNA] = 3'-amino-3'-deoxy-2'-O,4'-C-methylene-5-methyluridine; d = 2'-deoxy (DNA)
Tested on: double stranded DNA with the sequence of 5′-gctaaaaagaaagagagatcg-3′ (SEQ ID NO: 3) and its complementary strand 5′-cgatctctctttctttttagc-3′ (SEQ ID NO: 4)
Experiment: Measurement of Tm for determination of activity of triplet formation
Type: binding
Settings: 7 mM sodium phosphate buffer pH 7.0, 140 mM KCl, 1.5 μM each nucleotide, UV 260 nm

Substance	Tm (With MgCl2 (10 mM)) [°C]	Tm (Without MgCl2) [°C]
Oligonucleotide (2): 5′-tttttmtntmtmtmt-3′ (SEQ ID NO: 2), m is 5-methyl 2′-deoxycytidine, n is 3′-amino-3′-deoxy-2′-O,4′-C-methylene-5-methyluridine (TTTTTCTTTCTCTCT; sugars from the 5' end d7 [3'-NH2-LNA]1 d7, all C 5-methyl, backbone not given here; triplex-forming oligonucleotide, further chemistry not fully specified)	55	44
Oligonucleotide (3): natural oligonucleotide which forms a triplet, 5′tttttmtttmtmtmt-3′ (SEQ ID NO: 5), m is 5-methyl-2′deoxycytidine (TTTTTNTTTNTNTNT; 5-methyl-2'-deoxycytidine, chemistry not fully specified)	44	32

Reference: patent US7217805B2, “Bicyclonucleoside analogues” (Sankyo Company, Limited, priority 1999, dated 2007)
